The values that follow come from patent US7425557B2, “Inhibitors of glycogen synthase kinase 3” (Novartis Vaccines and Diagnostics, Inc., priority 1998, dated 2008).

Sequence of human GSK3β (P49841 whole entry): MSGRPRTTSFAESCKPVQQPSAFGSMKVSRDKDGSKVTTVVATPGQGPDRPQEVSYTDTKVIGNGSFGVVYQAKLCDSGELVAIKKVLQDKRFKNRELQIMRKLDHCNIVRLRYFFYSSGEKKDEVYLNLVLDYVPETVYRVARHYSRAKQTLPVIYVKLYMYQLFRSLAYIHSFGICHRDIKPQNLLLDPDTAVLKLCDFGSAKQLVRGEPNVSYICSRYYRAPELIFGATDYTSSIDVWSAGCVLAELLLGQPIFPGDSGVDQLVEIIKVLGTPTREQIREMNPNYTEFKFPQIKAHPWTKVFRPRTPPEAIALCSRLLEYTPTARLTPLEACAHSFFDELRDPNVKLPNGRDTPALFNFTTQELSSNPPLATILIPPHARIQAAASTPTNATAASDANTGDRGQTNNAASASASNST

This experiment has as its target human GSK3β (Homo sapiens, UniProt P49841). The experiment in a line: Screening for GSK3 inhibitory activity using a cell-free assay. It counts as biochemical. Conditions: read-out: IC50 with respect to GSK3. As to the method:
This amount represents the amount of radiolabeled phosphate incorporated into the peptide substrate.
The captured radiolabeled peptide substrate can be quantitated in a scintillation counter using known methods. […] If an inhibitor is present during the reaction, GSK3 activity will be reduced, and a smaller quantity of radiolabeled phosphate will thus be incorporated into the peptide substrate.
Pyrimidine and pyridine compounds of the present invention were dissolved in DMSO, then tested for inhibition of human GSK3β (the nucleotide sequence for human GSK3β appears in GenBank under Accession No. L33801).
While the reaction was proceeding, streptavidin-coated Labsystems “Combiplate 8” capture plates (Labsystems, Helsinki, Finland) were blocked by incubating them with 300 μl/well of PBS containing 1% bovine serum albumin for at least one hour at room temperature. The blocking solution was then removed by aspiration, and the capture plates were filled with 100 ul/well of stopping reagent (50 μM ATP/20 mM EDTA).
When the three hour enzyme reaction was finished, triplicate 100 μl aliquots of each reaction mix were transferred to three wells containing stopping solution, one well on each of the three capture plates, and the well contents were mixed well. […] Finally, 200 μl of Microscint-20 scintillation fluid was added to each well of the plate. The plates were coated with plate sealers, then left on a shaker for 30 minutes. Each capture plate was counted in a Packard TopCount scintillation counter (Meridian, Conn.) and the results were plotted as a function of compound concentration.
Take `CCOC(=O)c1c(CC)nc(NCCNc2ncccc2[N+](=O)[O-])nc1-c1ccc(C(N)=O)cc1` [ethyl 4-(4-carbamoylphenyl)-6-ethyl-2-({2-[(3-nitro(2-pyridyl))amino]ethyl}amino)pyrimidine-5-carboxylate]: the IC50 was at most 10000 nM. The result for `NC(=O)c1ccc(-c2ccnc(NCCNc3ccc(C(N)=S)cn3)n2)cc1` [4-{2-[(2-{[5-(aminothioxomethyl)-2-pyridyl]amino}ethyl)amino]pyrimidin-4-yl}benzamide] reads at most 1000 nM; that for `O=C(O)c1c(-c2ccc([N+](=O)[O-])cc2)nc(NCCNc2ccc([N+](=O)[O-])cn2)nc1-c1cccc(O)c1` [4-(3-hydroxyphenyl)-2-({2-[(5-nitro(2-pyridyl))amino]ethyl}amino)-6-(4-nitrophenyl)pyrimidine-5-carboxylic acid], at most 1000 nM; that for `COc1cccc(NCCNc2nccc(-c3ccc(C(N)=O)cc3)n2)n1` [4-[2-({2-[(6-methoxy-2-pyridyl)amino]ethyl}amino)pyrimidin-4-yl]benzamide], at most 1000 nM. `CCc1ccc(-c2nc(N(C)CCNc3ccc(C#N)cn3)ccc2N2CCN(C)CC2=O)cc1` [6-({2-[[6-(4-ethylphenyl)-5-(4-methyl-2-oxo-1-piperazinyl)-2-pyridinyl](methyl)amino]ethyl}amino)nicotinonitrile]: the IC50 is at most 10000 nM. Then `O=[N+]([O-])c1ccc(NCCNc2nccc(-c3cnccn3)n2)nc1` [{2-[(5-nitro(2-pyridyl))amino]ethyl}(4-pyrazin-2-ylpyrimidin-2-yl)amine], with at most 10000 nM; and `CCOC(=O)c1cnc(NCCNc2ccc(C(F)(F)F)cn2)nc1-c1ccc(C#N)cc1` [ethyl 4-(4-cyanophenyl)-2-[(2-{[5-(trifluoromethyl)(2-pyridyl)]amino}ethyl)-amino]pyrimidine-5-carboxylate], with at most 1000 nM.

As to `Cc1cccc(OCCCNc2nccc(-c3ccc(C(N)=O)cc3)n2)c1` [4-(2-{[3-(3-methylphenoxy)propyl]amino}pyrimidin-4-yl)benzamide], the IC50 is at most 10000 nM. Then `CCOC(=O)c1c(CC)nc(NCCNc2ccccn2)nc1-c1ccc(C(N)=O)cc1` [ethyl 4-(4-carbamoylphenyl)-6-ethyl-2-{[2-(2-pyridylamino)ethyl]-amino}pyrimidine-5-carboxylate], with at most 10000 nM; and `CCOC(=O)c1cnc(NCCNc2ccccn2)nc1-c1cccc([N+](=O)[O-])c1` [ethyl 4-(3-nitrophenyl)-2-{[2-(2-pyridylamino)ethyl]amino}pyrimidine-5-carboxylate], with at most 10000 nM. Regarding `NC(=O)c1ccc(-c2ccnc(NCc3cccc([N+](=O)[O-])c3)n2)cc1` [4-(2-{[(3-nitro-phenyl)methyl]amino}pyrimidin-4-yl)benzamide], the IC50 is at most 10000 nM.

As to `O=C(NCC(c1ccccc1)c1ccccc1)c1ccc(-c2ccnc(NCCNc3ccc([N+](=O)[O-])cn3)n2)cc1` [N-(2,2-diphenylethyl){4-[2-({2-[(5-nitro(2-pyridyl))amino]ethyl}amino)pyrimidin-4-yl]phenyl}carboxamide], the IC50 was at most 10000 nM. On to `C/C(=N\c1cnc(NCCNc2ccc([N+](=O)[O-])c(N)n2)nc1-c1ccc(Cl)cc1Cl)N1CCOCC1` [[5-((1E)-1-aza-2-morpholin-4-ylprop-1-enyl)-4-(2,4-dichlorophenyl)pyrimidin-2-yl]{2-[(6-amino-5-nitro(2-pyridyl))amino]ethyl}amine], for which the IC50 was at most 1000 nM. On to `Cc1cn(-c2ccc(NCCNc3ccc(C#N)cn3)nc2-c2ccc(Cl)cc2Cl)cn1` [6-[(2-{[6-(2,4-dichlorophenyl)-5-(4-methylimidazolyl)-2-pyridyl]-amino}ethyl)amino]pyridine-3-carbonitrile], for which the IC50 is at most 1000 nM. The result for `COc1ccc(OCCCNc2nccc(-c3ccc(C(N)=O)cc3)n2)cc1` [4-(2-{[3-(4-methoxyphenoxy)propyl]-amino}pyrimidin-4-yl)benzamide] reads at most 1000 nM; that for `CS(=O)(=O)c1cnc(NCCNc2ccc([N+](=O)[O-])cn2)nc1-c1ccc(C#N)cc1` [4-[5-(methylsulfonyl)-2-({2-[(5-nitro(2-pyridyl))amino]ethyl}amino)pyrimidin-4-yl]benzenecarbonitrile], at most 1000 nM. The result for `O=C(NCC1CCNCC1)c1ccc(-c2ccnc(NCCNc3ccc([N+](=O)[O-])cn3)n2)cc1` [{4-[2-({2-[(5-nitro(2-pyridyl))amino]ethyl}amino)pyrimidin-4-yl]phenyl}-N-(4-piperidylmethyl)carboxamide] reads at most 10000 nM; that for `CCc1ccc(-c2nc(NCCNc3ccc([N+](=O)[O-])c(N)n3)ncc2-n2ccnc2)cc1` [{2-[(6-amino-5-nitro(2-pyridyl))amino]ethyl}[4-(4-ethylphenyl)-5-imidazolylpyrimidin-2-yl]amine], at most 1000 nM; that for `N#Cc1ccc(NCCNc2ncc(-c3ncc[nH]3)c(-c3ccc(Br)cc3Cl)n2)nc1` [6-[(2-{[4-(4-bromo-2-chlorophenyl)-5-imidazol-2-ylpyrimidin-2-yl]amino}ethyl)amino]pyridine-3-carbonitrile], at most 1000 nM. As to `Nc1nc(NCCNc2ncc(N3C(=O)CCC3=O)c(-c3ccc(Cl)cc3Cl)n2)ccc1[N+](=O)[O-]` [1-[2-({2-[(6-amino-5-nitro(2-pyridyl))amino]ethyl}amino)-4-(2,4-dichlorophenyl)pyrimidin-5-yl]-pyrrolidine-2,5-dione], the IC50 is at most 1000 nM. Regarding `CCOC(=O)c1c(CC)nc(NCCNc2ccc(C(F)(F)F)cn2)nc1-c1ccc(C(N)=O)cc1` [ethyl 4-(4-carbamoylphenyl)-6-ethyl-2-[(2-{[5-(trifluoromethyl)(2-pyridyl)]amino}-ethyl)amino]pyrimidine-5-carboxylate], the IC50 was at most 10000 nM. Then `COc1ccccc1CCNc1nccc(-c2ccc(C(N)=O)cc2)n1` [4-(2-{[2-(2-methoxyphenyl)-ethyl]amino}pyrimidin-4-yl)benzamide], with at most 1000 nM; and `CCOC(=O)c1cnc(NCCNc2ccc([N+](=O)[O-])cn2)nc1-c1ccc(F)c(F)c1` [ethyl 4-(3,4-difluorophenyl)-2-({2-[(5-nitro(2-pyridyl))amino]ethyl}amino)pyrimidine-5-carboxylate], with at most 1000 nM; and `Nc1nc(NCCNc2ncc(-n3nnnc3C(F)(F)F)c(-c3ccc(Cl)cc3Cl)n2)ccc1[N+](=O)[O-]` [{2-[(6-amino-5-nitro(2-pyridyl))amino]ethyl}{4-(2,4-dichlorophenyl)-5-[5-(trifluoromethyl)(1,2,3,4-tetraazolyl)]pyrimidin-2-yl}amine], with at most 1000 nM. As to `O=C(NCc1ccc(F)cc1)c1ccc(-c2ccnc(NCCNc3ccc([N+](=O)[O-])cn3)n2)cc1` [N-[(4-fluorophenyl)methyl]{4-[2-({2-[(5-nitro(2-pyridyl))amino]ethyl}amino)pyrimidin-4-yl]phenyl}carboxamide], the IC50 is at most 10000 nM. Then `CN1CCN(c2cnc(NCCNc3ccc([N+](=O)[O-])cn3)nc2-c2ccc(Cl)cc2Cl)CC1` [[4-(2,4-dichlorophenyl)-5-(4-methylpiperazinyl)pyrimidin-2-yl]{2-[(5-nitro(2-pyridyl))amino]ethyl}amine], with at most 1000 nM; and `c1ccc(Cc2cnc(NCCNc3ccccn3)nc2-c2ccccc2)cc1` [[4-phenyl-5-benzyl-pyrimidin-2-yl][2-(2-pyridylamino)ethyl]amine], with at most 10000 nM. Then `CCOC(=O)c1cnc(NCCNc2ccc([N+](=O)[O-])cn2)nc1-c1ccc(SC)cc1` [ethyl 4-(4-methylthiophenyl)-2-({2-[(5-nitro(2-pyridyl))amino]ethyl}amino)pyrimidine-5-carboxylate], with at most 1000 nM.

Consider `Nc1cnc(NCCNc2ccc([N+](=O)[O-])c(N)n2)nc1-c1ccc(Cl)cc1Cl` [[5-amino-4-(2,4-dichlorophenyl)pyrimidin-2-yl]{2-[(6-amino-5-nitro(2-pyridyl))amino]ethyl}amine], for which the IC50 is at most 1000 nM. The result for `COCCNc1nc(NCCNc2ccc([N+](=O)[O-])cn2)ccc1[N+](=O)[O-]` [{6-[(2-methoxyethyl)amino]-5-nitro(2-pyridyl)}{2-[(5-nitro(2-pyridyl))amino]ethyl}amine] reads at most 10000 nM; that for `CCOC(=O)c1cnc(NCCNc2ccc([N+](=O)[O-])cn2)nc1-c1ccc(OC)c(OC)c1` [ethyl 4-(3,4-dimethoxyphenyl)-2-({2-[(5-nitro(2-pyridyl))amino]ethyl}amino)pyrimidine-5-carboxylate], at most 10000 nM; that for `CN1CCN(c2ccc(NCCNc3ccc([N+](=O)[O-])c(N)n3)nc2-c2cccnc2)C(=O)C1` [1-{6-[2-(6-Amino-5-nitropyridin-2-ylamino)-ethylamino]-[2,3′]bipyridinyl-3-yl}-4-methyl-piperazin-2-one], at most 10000 nM.

Turning to `Cc1c[nH]c(-c2cnc(NCCNc3ccc(C#N)cn3)nc2-c2ccc(Br)cc2Cl)n1` [6-[(2-{[4-(4-bromo-2-chlorophenyl)-5-(4-methylimidazol-2-yl)pyrimidin-2-yl]amino}ethyl)amino]pyridine-3-carbonitrile], the IC50 is at most 1000 nM. The result for `CCOC(=O)c1cnc(NCCNc2ccc([N+](=O)[O-])cn2)nc1NCc1cccc(Br)c1` [ethyl 4-{[(3-bromophenyl)methyl]amino}-2-({2-[(5-nitro(2-pyridyl))amino]ethyl}amino)pyrimidine-5-carboxylate] reads at most 10000 nM.

As a reminder, the IC50 is the point on the concentration scale where inhibition reaches its midpoint.
